Laboratory results taken from the supplement of paper PMC11451515.

Tested on: P12-Ichikawa
Assay: cell viability relative to DMSO control; higher = less cytotoxic
Conditions: 48 h
In short: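 Viability was expressed as a per-plate percentage of DMSO wells, with cell-free wells as background. Leukemia cells (NOMO1 or SEM at 500 cells/well, P12-Ichikawa at 1000 cells/well) were adapted for at least four passages in each medium and seeded in 1536-well plates (5 μl). Library compounds in DMSO were pin-dosed over an 11-point threefold series from 47 μM to 0.79 nM, and CellTiter-Glo One luminescence was read after 48 h at 37°C.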

[1] = HPLM + 10% dialyzed FBS, 0.000781 µM
[2] = HPLM + 10% dialyzed FBS, 0.00234 µM
[3] = HPLM + 10% dialyzed FBS, 0.00702 µM
[4] = HPLM + 10% dialyzed FBS, 0.0211 µM
[5] = HPLM + 10% dialyzed FBS, 0.0632 µM
[6] = HPLM + 10% dialyzed FBS, 0.19 µM
[7] = HPLM + 10% dialyzed FBS, 0.569 µM
[8] = HPLM + 10% dialyzed FBS, 1.71 µM
[9] = HPLM + 10% dialyzed FBS, 5.12 µM
[10] = HPLM + 10% dialyzed FBS, 15.4 µM
[11] = HPLM + 10% dialyzed FBS, 46.1 µM
[12] = RPMI 5 mM glucose + 10% FBS, 0.000781 µM
[13] = RPMI 5 mM glucose + 10% FBS, 0.00234 µM
[14] = RPMI 5 mM glucose + 10% FBS, 0.00702 µM
[15] = RPMI 5 mM glucose + 10% FBS, 0.0211 µM
[16] = RPMI 5 mM glucose + 10% FBS, 0.0632 µM
[17] = RPMI 5 mM glucose + 10% FBS, 0.19 µM
[18] = RPMI 5 mM glucose + 10% FBS, 0.569 µM
[19] = RPMI 5 mM glucose + 10% FBS, 1.71 µM
[20] = RPMI 5 mM glucose + 10% FBS, 5.12 µM
[21] = RPMI 5 mM glucose + 10% FBS, 15.4 µM
[22] = RPMI 5 mM glucose + 10% FBS, 46.1 µM
[23] = RPMI 5 mM glucose + 10% dialyzed FBS, 0.000781 µM
[24] = RPMI 5 mM glucose + 10% dialyzed FBS, 0.00234 µM
[25] = RPMI 5 mM glucose + 10% dialyzed FBS, 0.00702 µM
[26] = RPMI 5 mM glucose + 10% dialyzed FBS, 0.0211 µM
[27] = RPMI 5 mM glucose + 10% dialyzed FBS, 0.0632 µM
[28] = RPMI 5 mM glucose + 10% dialyzed FBS, 0.19 µM
[29] = RPMI 5 mM glucose + 10% dialyzed FBS, 0.569 µM
[30] = RPMI 5 mM glucose + 10% dialyzed FBS, 1.71 µM
[31] = RPMI 5 mM glucose + 10% dialyzed FBS, 5.12 µM
[32] = RPMI 5 mM glucose + 10% dialyzed FBS, 15.4 µM
[33] = RPMI 5 mM glucose + 10% dialyzed FBS, 46.1 µM

Structure (SMILES) | cell viability [1] [%] | cell viability [2] [%] | cell viability [3] [%] | cell viability [4] [%] | cell viability [5] [%] | cell viability [6] [%] | cell viability [7] [%] | cell viability [8] [%] | cell viability [9] [%] | cell viability [10] [%] | cell viability [11] [%] | cell viability [12] [%] | cell viability [13] [%] | cell viability [14] [%] | cell viability [15] [%] | cell viability [16] [%] | cell viability [17] [%] | cell viability [18] [%] | cell viability [19] [%] | cell viability [20] [%] | cell viability [21] [%] | cell viability [22] [%] | cell viability [23] [%] | cell viability [24] [%] | cell viability [25] [%] | cell viability [26] [%] | cell viability [27] [%] | cell viability [28] [%] | cell viability [29] [%] | cell viability [30] [%] | cell viability [31] [%] | cell viability [32] [%] | cell viability [33] [%]
OCCn1cc(-c2cnc3nnn(Cc4ccc5ncccc5c4)c3n2)cn1 | 116 | 116 | 116 | 110 | 112 | 110 | 110 | 107 | 103 | 98.9 | 75.4 | 108 | 115 | 114 | 107 | 106 | 122 | 115 | 101 | 100 | 99.6 | 86.5 | 108 | 122 | 114 | 118 | 122 | 115 | 115 | 109 | 112 | 96.9 | 88.6
COc1cccc2c1[C@]13CCN(CC4CC4)[C@H](C2)[C@]1(OC)CCC(=O)C3 | 99.7 | 120 | 66.7 | 124 | 125 | 122 | 121 | 121 | 127 | 116 | 119 | 94.6 | 113 | 56.9 | 110 | 136 | 129 | 127 | 121 | 123 | 117 | 123 | 92.9 | 120 | 68.7 | 120 | 123 | 127 | 133 | 118 | 122 | 127 | 116
CC(C)Cc1ccc(C(C)C(=O)O)cc1 (stereo not drawn) | 86.1 | 86 | 92.1 | 90 | 91.9 | 98.2 | 92.8 | 95.4 | 96.6 | 92.4 | 95.4 | 90.4 | 90.9 | 84.5 | 85 | 87.5 | 89.2 | 81.8 | 90.3 | 82.1 | 77.6 | 81 | 86.7 | 91.6 | 83.9 | 83.2 | 88.3 | 89.8 | 79.1 | 81.7 | 80.9 | 84.5 | 95.6
CCN1CCCC1CNC(=O)c1cc([S+](N)(=O)[O-])ccc1OC (stereo not drawn) | 111 | 115 | 119 | 108 | 125 | 121 | 116 | 118 | 113 | 120 | 109 |  |  |  |  |  |  |  |  |  |  |  | 107 | 117 | 121 | 117 | 126 | 117 | 124 | 126 | 124 | 128 | 117
CCOC(=O)\C1=C\[C@@H](OC(CC)CC)[C@H](NC(C)=O)[C@@H](N)C1 | 98.9 | 95 | 92.3 | 97.3 | 92.3 | 103 | 96.9 | 96 | 99.6 | 100 | 94.9 | 86 | 95.3 | 97.4 | 95.8 | 94.3 | 102 | 95.7 | 88.5 | 102 | 100 | 99.9 | 87.7 | 79.3 | 86.5 | 94.8 | 90.7 | 81.4 | 88.8 | 86.2 | 87.4 | 84.8 | 99.3
OC1=CC2=C(C(=C1)O)C(=O)\C(=C(/O2)C3=CC(=C(O)C=C3)O)O | 98.8 | 99.2 | 108 | 113 | 112 | 111 | 107 | 110 | 116 | 102 | 79.3 | 93.8 | 107 | 103 | 103 | 109 | 105 | 110 | 101 | 107 | 101 | 85.9 | 107 | 108 | 113 | 103 | 117 | 100 | 117 | 108 | 118 | 109 | 73.2
COC(=O)\C1=C\CCN(C)C1 | 111 | 106 | 105 | 100 | 103 | 108 | 96.9 | 102 | 93.7 | 102 | 105 | 102 | 115 | 113 | 104 | 102 | 108 | 111 | 115 | 107 | 98.4 | 101 | 101 | 101 | 97 | 96.1 | 96.3 | 99.8 | 102 | 101 | 93 | 99 | 93.3
CCN1CCN(C(=O)Cc2ccc(Nc3ncc(F)c(Nc4ccc(C(=O)Nc5ccccc5Cl)cc4)n3)cc2)CC1 | 107 | 105 | 108 | 108 | 116 | 118 | 116 | 107 | 60.1 | 48.1 | 26.2 | 105 | 108 | 112 | 111 | 115 | 122 | 111 | 114 | 73.2 | 50.9 | 41 | 119 | 111 | 112 | 125 | 131 | 121 | 107 | 107 | 79.2 | 52.6 | 45.6
OC[C@H]1O[C@@H](Oc2cc(O)cc(/C=C/c3ccc(O)cc3)c2)[C@H](O)[C@@H](O)[C@@H]1O | 98.2 | 110 | 108 | 113 | 113 | 107 | 108 | 131 | 110 | 117 | 117 | 110 | 114 | 106 | 113 | 116 | 125 | 117 | 123 | 105 | 103 | 101 | 89.9 | 109 | 105 | 105 | 114 | 107 | 115 | 112 | 103 | 102 | 101
CCOc1cc(CC(=O)N[C@@H](CC(C)C)c2ccccc2N2CCCCC2)ccc1C(=O)O | 113 | 124 | 116 | 129 | 130 | 125 | 129 | 111 | 12.2 | 13.3 | 13.4 | 110 | 130 | 119 | 137 | 124 | 127 | 135 | 120 | 16.4 | 17.6 | 19.6 |  |  |  |  |  |  |  |  |  |  | 
COc1cc(C)c(Sc2cnc(NC(=O)c3ccc(CNC(C)C(C)C)cc3)s2)cc1C(=O)N1CCN(C(C)=O)CC1 (stereo not drawn) | 118 | 125 | 119 | 129 | 119 | 118 | 117 | 107 | 103 | 90.1 | 109 |  |  |  |  |  |  |  |  |  |  |  |  |  |  |  |  |  |  |  |  |  | 
CC(C)(C)[C@H](NC(=O)c1ccc(N)c(Cl)c1)C(=O)N1CCC[C@H]1C(=O)N[C@H](C#N)CC(=O)O | 121 | 126 | 123 | 127 | 131 | 127 | 130 | 126 | 32.8 | 14.4 | 10.8 | 116 | 124 | 130 | 133 | 126 | 139 | 133 | 133 | 49.9 | 22.6 | 15.5 | 108 | 123 | 121 | 133 | 131 | 130 | 133 | 127 | 102 | 52.1 | 16.7
Nc1nc(Cl)nc2c1ncn2[C@@H]1O[C@H](CO)[C@@H](O)[C@@H]1F | 18.2 | 55.1 | 15.7 | 16.3 | 18.8 | 15.4 | 15.2 | 11.8 | 13.5 | 10.6 | 8.95 | 32.2 | 50 | 15.6 | 14.8 | 16.3 | 13.6 | 10.6 | 9.04 | 8.02 | 9.03 | 5.68 | 28.4 | 37.2 | 24.4 | 23.5 | 24.7 | 24.6 | 21.2 | 24.3 | 19 | 20.3 | 17.5
Nc1ncnc2c1c(-c1cccc(OCc3ccccc3)c1)cn2C1CC(CN2CCCC2)C1 (stereo not drawn) | 116 | 128 | 120 | 130 | 134 | 128 | 133 | 124 | 134 | 121 | 62.4 |  |  |  |  |  |  |  |  |  |  |  |  |  |  |  |  |  |  |  |  |  | 
COc1cc(C(=O)NS(=O)(=O)c2ccccc2C)ccc1Cc1cn(C)c2ccc(NC(=O)OC3CCCC3)cc12 | 73.2 | 81.6 | 85.9 | 90.7 | 89.8 | 86.6 | 86.5 | 89.1 | 88.8 | 104 | 72.3 | 82.7 | 78.3 | 79.2 | 88.1 | 77.8 | 83.6 | 84.4 | 85 | 90.1 | 87 | 5.73 | 76.9 | 74 | 76.6 | 81.6 | 83.8 | 78.3 | 89.6 | 82.3 | 92.5 | 87.4 | 44.2
OC[C@H]1O[C@@H]2[C@@H](OC\3=N\C(=N)\C=C/[N@@]23)[C@@H]1O | 113 | 119 | 107 | 105 | 95.6 | 44.3 | 24.7 | 13.5 | 10.7 | 7.98 | 8.28 | 116 | 118 | 118 | 105 | 93.2 | 47.3 | 22.5 | 12.1 | 8.81 | 7.28 | 6.52 | 109 | 122 | 114 | 117 | 92.4 | 53.2 | 28.6 | 17 | 11.6 | 9.01 | 7.41
C[C@H]1COC/2=C1/C(=O)C(=O)C3=C4CCCC(C)(C)C4=CC=C23 | 112 | 118 | 121 | 129 | 127 | 134 | 137 | 124 | 129 | 118 | 94 |  |  |  |  |  |  |  |  |  |  |  |  |  |  |  |  |  |  |  |  |  | 
